Where two headings read alike, the source gives them in different places.
Assays:
[1] = target: T1, human PRMT4 (full length) (Homo sapiens, UniProt Q86X55); test: SPR binding to immobilized PRMT4; conditions: for koff / Kd / kon: SPR; for koff / kon: immobilized PRMT4; for Kd: immobilized PRMT4, 25 °C, KD from ratio koff/kon; for kon: read-out: kon; for τR: in vitro residence time, τ = 1/koff
T1 construct: Full-length recombinant PRMT4 (Active motif, # 81107); purchased Active motif # 81107
T1 sequence (Q86X55 1-608): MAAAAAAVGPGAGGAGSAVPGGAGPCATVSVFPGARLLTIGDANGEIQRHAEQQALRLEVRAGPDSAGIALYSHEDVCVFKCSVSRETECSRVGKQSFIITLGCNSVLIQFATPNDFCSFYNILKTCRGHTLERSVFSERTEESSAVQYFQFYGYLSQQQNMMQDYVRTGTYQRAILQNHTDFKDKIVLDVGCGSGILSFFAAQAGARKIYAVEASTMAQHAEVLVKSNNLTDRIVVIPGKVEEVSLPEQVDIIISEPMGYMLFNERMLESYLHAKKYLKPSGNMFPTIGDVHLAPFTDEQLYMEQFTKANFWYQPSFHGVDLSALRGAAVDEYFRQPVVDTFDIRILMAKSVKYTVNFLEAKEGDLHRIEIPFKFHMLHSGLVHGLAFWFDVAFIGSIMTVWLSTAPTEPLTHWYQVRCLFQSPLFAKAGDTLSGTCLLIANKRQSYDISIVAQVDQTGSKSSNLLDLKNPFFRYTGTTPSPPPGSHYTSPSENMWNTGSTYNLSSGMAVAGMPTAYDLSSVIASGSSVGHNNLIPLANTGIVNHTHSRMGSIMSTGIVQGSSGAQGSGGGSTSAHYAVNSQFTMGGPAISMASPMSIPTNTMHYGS
Experimental: To this aim, human PRMT4 (full length) was covalently immobilized on a sensor chip surface using an amine-coupling approach, and the three compounds were injected at different concentrations over the protein surface. To reduce false positives from detergent-sensitive, nonspecific aggregation-based binding, detergents (0.05% Tween-20) were added to the running buffer in all experiments.
SPR experiments were performed on a Biacore T200 biosensor (Cytiva). PBS buffer (phosphate-buffered saline, pH 7.4) supplemented with 0.05% Tween-20 was used as the running buffer. […] One flow cell was left empty for background subtractions. […] Each compound was tested in […], prepared starting from 640 to 10 nM. Binding experiments were performed at 25 °C by using a flow rate of 30 μL/min, with 90 s monitoring of association and 90 s monitoring of dissociation. Regeneration of the surfaces was performed, when necessary, by a 10 s injection of 5 mM NaOH. […] The corrected sensorgrams for each compound were fitted simultaneously using a 1:1 Langmuir model to obtain equilibrium dissociation constants (KD) and kinetic dissociation (koff) and association (kon) constants.

[2] = target: PRMT5/MEP50 complex (Homo sapiens, UniProt O14744); test: Radioisotope-based filter-binding (HotSpot) assay, PRMT5
Sequence of PRMT5/MEP50 complex (O14744 2-637): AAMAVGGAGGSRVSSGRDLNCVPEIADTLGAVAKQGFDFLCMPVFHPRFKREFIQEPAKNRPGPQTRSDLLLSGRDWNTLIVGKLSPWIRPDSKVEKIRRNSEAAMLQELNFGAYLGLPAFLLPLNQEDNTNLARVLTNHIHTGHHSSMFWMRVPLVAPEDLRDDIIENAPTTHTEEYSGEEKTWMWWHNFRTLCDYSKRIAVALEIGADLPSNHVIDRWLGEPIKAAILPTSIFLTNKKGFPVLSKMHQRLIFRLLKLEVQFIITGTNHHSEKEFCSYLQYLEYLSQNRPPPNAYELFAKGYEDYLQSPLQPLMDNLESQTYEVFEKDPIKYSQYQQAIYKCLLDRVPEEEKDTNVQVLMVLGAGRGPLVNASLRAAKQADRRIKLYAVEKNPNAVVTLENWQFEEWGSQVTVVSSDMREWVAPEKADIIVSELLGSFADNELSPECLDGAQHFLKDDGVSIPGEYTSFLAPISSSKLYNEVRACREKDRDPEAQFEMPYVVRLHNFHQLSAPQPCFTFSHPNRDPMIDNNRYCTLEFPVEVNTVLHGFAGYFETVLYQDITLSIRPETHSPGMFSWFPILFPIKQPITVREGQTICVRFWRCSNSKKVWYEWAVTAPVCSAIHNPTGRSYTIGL
Sequence of PRMT5/MEP50 complex (Q9BQA1 2-342 partner limits assumed): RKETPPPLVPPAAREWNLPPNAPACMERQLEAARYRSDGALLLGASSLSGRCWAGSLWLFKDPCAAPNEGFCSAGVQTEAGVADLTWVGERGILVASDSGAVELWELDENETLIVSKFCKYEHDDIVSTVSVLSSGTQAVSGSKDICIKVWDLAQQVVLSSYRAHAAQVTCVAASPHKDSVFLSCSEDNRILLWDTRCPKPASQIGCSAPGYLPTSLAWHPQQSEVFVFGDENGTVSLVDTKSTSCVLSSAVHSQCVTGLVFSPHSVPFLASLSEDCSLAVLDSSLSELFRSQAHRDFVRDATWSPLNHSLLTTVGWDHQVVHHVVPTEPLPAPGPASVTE
Experimental: (§1) Then, ^3H-SAM (final concentration 1 μM) was delivered into the reaction mixture to initiate the reaction. After incubation for 60 min at 30 °C, the reaction mixture was delivered to filter paper for detection (as assessed by scintillation). Data were analyzed using Excel and GraphPad Prism 6.0 software (GraphPad Software Inc., San Diego, CA) for IC50 curve fits using sigmoidal dose vs response-variable slope (four parameters) equations.

[3] = target: PRMT1 (Homo sapiens, UniProt Q99873); test: Radioisotope-based filter-binding (HotSpot) assay, PRMT1; conditions: for IC50: radioisotope-based filter assay
Sequence of PRMT1 (Q99873 2-371): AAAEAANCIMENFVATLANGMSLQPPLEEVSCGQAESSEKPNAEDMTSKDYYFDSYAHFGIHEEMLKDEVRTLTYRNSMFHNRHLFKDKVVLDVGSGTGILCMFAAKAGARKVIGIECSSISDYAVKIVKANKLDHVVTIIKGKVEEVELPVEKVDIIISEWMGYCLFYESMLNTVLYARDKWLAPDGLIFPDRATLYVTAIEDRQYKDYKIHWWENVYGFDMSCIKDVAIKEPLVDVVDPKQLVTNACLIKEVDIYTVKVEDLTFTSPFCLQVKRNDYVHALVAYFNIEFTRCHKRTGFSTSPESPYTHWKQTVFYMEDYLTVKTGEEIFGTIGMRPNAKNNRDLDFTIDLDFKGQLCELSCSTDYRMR
Experimental: as §1

[4] = target: T2, PRMT4 (Homo sapiens, UniProt Q86X55); test: Radioisotope-based filter-binding (HotSpot) assay, PRMT4; conditions: for LE: ligand efficiency for PRMT4 calculated from IC50 as a surrogate for KD; for selectivity index for PRMT4 vs other PRMTs: PRMT1: ratio IC50 PRMT1 / IC50 PRMT4, rounded to nearest integer; for selectivity index for PRMT4 vs other PRMTs: PRMT3: ratio IC50 PRMT3 / IC50 PRMT4; for selectivity index for PRMT4 vs other PRMTs: PRMT5: ratio IC50 PRMT5 / IC50 PRMT4; for selectivity index for PRMT4 vs other PRMTs: PRMT6: ratio IC50 PRMT6 / IC50 PRMT4; for selectivity index for PRMT4 vs other PRMTs: PRMT7: ratio IC50 PRMT7 / IC50 PRMT4; for selectivity index for PRMT4 vs other PRMTs: PRMT8: ratio IC50 PRMT8 / IC50 PRMT4; for IC50: radioisotope-based filter assay; for SI PRMT1 (Figure 5 heatmap): selectivity index for PRMT4 over PRMT1; for SI PRMT3 (Figure 5 heatmap): selectivity index for PRMT4 over PRMT3; for SI PRMT5 (Figure 5 heatmap): selectivity index for PRMT4 over PRMT5; for SI PRMT6 (Figure 5 heatmap): selectivity index for PRMT4 over PRMT6; for SI PRMT7 (Figure 5 heatmap): selectivity index for PRMT4 over PRMT7; for SI PRMT8 (Figure 5 heatmap): selectivity index for PRMT4 over PRMT8
T2 sequence (Q86X55 2-608): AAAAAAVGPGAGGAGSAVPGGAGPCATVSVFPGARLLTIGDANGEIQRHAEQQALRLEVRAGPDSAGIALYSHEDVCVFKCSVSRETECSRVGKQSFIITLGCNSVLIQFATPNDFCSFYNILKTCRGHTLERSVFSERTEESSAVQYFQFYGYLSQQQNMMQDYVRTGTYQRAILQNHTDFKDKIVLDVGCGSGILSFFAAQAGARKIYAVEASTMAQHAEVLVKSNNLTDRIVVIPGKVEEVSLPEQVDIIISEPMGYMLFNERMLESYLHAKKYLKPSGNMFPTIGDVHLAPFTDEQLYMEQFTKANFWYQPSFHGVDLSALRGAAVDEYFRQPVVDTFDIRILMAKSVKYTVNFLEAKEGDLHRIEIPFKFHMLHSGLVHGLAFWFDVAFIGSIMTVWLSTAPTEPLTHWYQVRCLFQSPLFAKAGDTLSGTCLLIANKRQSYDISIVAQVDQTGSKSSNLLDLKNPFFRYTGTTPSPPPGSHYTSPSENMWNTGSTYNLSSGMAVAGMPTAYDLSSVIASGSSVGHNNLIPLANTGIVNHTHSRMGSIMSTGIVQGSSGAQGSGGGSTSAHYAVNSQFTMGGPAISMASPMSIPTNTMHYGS
Experimental: as §1

[5] = target: PRMT3 (Homo sapiens, UniProt O60678); test: Radioisotope-based filter-binding (HotSpot) assay, PRMT3; conditions: radioisotope-based filter assay
Sequence of PRMT3 (O60678 2-531): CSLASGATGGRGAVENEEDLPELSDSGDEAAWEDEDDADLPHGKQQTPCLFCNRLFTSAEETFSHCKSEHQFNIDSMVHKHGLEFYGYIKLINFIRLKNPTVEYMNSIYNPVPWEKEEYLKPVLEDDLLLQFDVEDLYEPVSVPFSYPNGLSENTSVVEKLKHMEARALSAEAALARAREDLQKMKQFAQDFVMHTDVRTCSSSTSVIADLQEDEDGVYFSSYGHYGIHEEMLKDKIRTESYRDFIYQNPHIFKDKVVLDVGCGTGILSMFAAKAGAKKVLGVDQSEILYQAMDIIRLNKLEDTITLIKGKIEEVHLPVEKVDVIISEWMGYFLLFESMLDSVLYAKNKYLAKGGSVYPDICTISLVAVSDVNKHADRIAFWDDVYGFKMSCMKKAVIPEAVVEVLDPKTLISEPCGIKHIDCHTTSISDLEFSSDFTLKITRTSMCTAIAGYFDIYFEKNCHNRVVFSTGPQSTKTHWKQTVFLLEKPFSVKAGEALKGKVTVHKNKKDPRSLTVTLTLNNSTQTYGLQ
Experimental: as §1

[6] = target: PRMT6 (Homo sapiens, UniProt Q96LA8); test: Radioisotope-based filter-binding (HotSpot) assay, PRMT6; conditions: read-out: IC50 (μM) PRMT6; radioisotope-based filter assay; 5 μM GST-GAR; 1 μM 3H-SAM
Sequence of PRMT6 (Q96LA8 2-375): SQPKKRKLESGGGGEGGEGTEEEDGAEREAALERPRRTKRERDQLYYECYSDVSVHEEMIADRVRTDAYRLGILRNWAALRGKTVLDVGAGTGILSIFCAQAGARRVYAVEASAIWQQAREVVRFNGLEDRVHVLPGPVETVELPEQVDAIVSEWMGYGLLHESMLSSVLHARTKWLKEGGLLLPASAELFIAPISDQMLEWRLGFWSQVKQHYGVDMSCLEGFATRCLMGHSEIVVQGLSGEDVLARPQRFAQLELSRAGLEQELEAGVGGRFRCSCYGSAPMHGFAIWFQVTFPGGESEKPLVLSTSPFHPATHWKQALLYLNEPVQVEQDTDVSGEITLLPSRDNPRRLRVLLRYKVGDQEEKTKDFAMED
Experimental: as §1

[7] = read-out: IC50 (μM) PRMT5, radioisotope-based filter assay, 5 μM histone H2A, 1 μM 3H-SAM
[8] = read-out: IC50 (μM) PRMT1, 5 μM histone H4, 1 μM 3H-SAM
[9] = read-out: IC50 (μM) PRMT4, 5 μM histone H3, 1 μM 3H-SAM
[10] = read-out: IC50 (μM) PRMT3, 5 μM histone H4, 1 μM 3H-SAM
[11] = on increasing the linker between 4-hydroxy-2-naphthoate and guanidine (values equal the ratio to the IC50 of 12c)

Structure (SMILES) | koff [1] | Kd [1] | kon [1] | τR [1] | IC50 [2, 7] | IC50 [3, 8] | LE [4] | selectivity index for PRMT4 vs other PRMTs: PRMT1 [4] | selectivity index for PRMT4 vs other PRMTs: PRMT3 [4] | selectivity index for PRMT4 vs other PRMTs: PRMT5 [4] | selectivity index for PRMT4 vs other PRMTs: PRMT6 [4] | selectivity index for PRMT4 vs other PRMTs: PRMT7 [4] | selectivity index for PRMT4 vs other PRMTs: PRMT8 [4] | IC50 [4, 9] | SI PRMT1 (Figure 5 heatmap) [4] | SI PRMT3 (Figure 5 heatmap) [4] | SI PRMT5 (Figure 5 heatmap) [4] | SI PRMT6 (Figure 5 heatmap) [4] | SI PRMT7 (Figure 5 heatmap) [4] | SI PRMT8 (Figure 5 heatmap) [4] | also measured
COC(=O)c1cc(O)c2cc(NC(=O)NCCCCCNC(=N)NC[C@H]3O[C@@H](n4cnc5c(N)ncnc54)[C@H](O)[C@@H]3O)ccc2c1 [12c, Methyl 6-(3-(5-(3-(((2R,3S,4R,5R)-5-(6-Amino-9H-purin-9-yl)-3,4-dihydroxytetrahydrofuran-2-yl)methyl)guanidino)pentyl)ureido)-4-hydroxy-2-naphthoate] | 0.013 s⁻¹ | 0.359 µM | 34900 M⁻¹ s⁻¹ | 76.9 s | 51.4 µM | 8.46 µM | 0.19 | 20 | 51 | 122 | >238 | 0.52 | 14 | 0.42 µM | 20 fold | 51 fold | 122 fold | > 238 fold | 0.52 fold | 14 fold | IC50 [2]: 5.14 µM; IC50 ([4]; read-out: IC50 PRMT4 (Figure 5 heatmap)): 0.421 µM; IC50 [5, 10]: 21.3 µM; IC50 [6]: > 100 µM
COC(=O)c1cc(O)c2cc(NC(=O)NCCCCCCCNC(=N)NC[C@H]3O[C@@H](n4cnc5c(N)ncnc54)[C@H](O)[C@@H]3O)ccc2c1 [12e, Methyl 6-(3-(7-(3-(((2R,3S,4R,5R)-5-(6-Amino-9H-purin-9-yl)-3,4-dihydroxytetrahydrofuran-2-yl)methyl)guanidino)heptyl)ureido)-4-hydroxy-2-naphthoate] | 0.015 s⁻¹ | 0.603 µM | 25800 M⁻¹ s⁻¹ | 66.7 s | 3.38 µM | 2.6 µM | 0.20 | 15 | 70 | 19 | 202 | 4 | 33 | 0.176 µM | 15 fold | 70 fold | 19 fold | 202 fold | 4 fold | 33 fold | gain in the inhibitory activity against PRMT5 [2, 11]: 15.2 fold; IC50 ([2]; read-out: IC50 PRMT5 (Figure 5 heatmap), radioisotope-based filter assay): 3.38 µM; gain in the inhibitory activity against PRMT1 [3, 11]: 3.2 fold; IC50 ([3]; read-out: IC50 PRMT1 (Figure 5 heatmap)): 2.6 µM; gain in the inhibitory activity against PRMT4 [4, 11]: 2.4 fold; IC50 [5, 10]: 12.4 µM; IC50 ([5]; read-out: IC50 PRMT3 (Figure 5 heatmap)): 12.4 µM; IC50 [6]: 35.6 µM
